# Measurements from patent publication US20150359731A1, “PHYLLANTHUS ACIDUS EXTRACTS AND METHODS OF USE” (AVON PRODUCTS, INC, priority 2013, published 2015).
# Test system: dorsal forearm skin of healthy female Caucasian subjects with mild to moderate photo damage
# Test: In vivo biopsy, histology of treated dorsal forearm skin
# Design: species or system human
# Settings: 3 weeks semi-occlusion patch, 2 mg/cm^2, extract 0.33%, retinol 0.05% active
# Description: Healthy female Caucasian subjects aged 30-65, with skin type II or III and mild to moderate photo damage, were treated on the dorsal forearm for 3 weeks (3 consecutive rounds of 5×24 hour) under semi-occlusion patches. Test articles including active ingredients, vehicle controls, and retinol were applied in a randomized allocation on 6 sites on each forearm. The application dose was 2 mg/cm^2. After 3 week treatment, a 2 mm punch biopsy was obtained from each treatment site and fixed in 10% buffered formalin. Tissue samples then embedded in paraffin, sectioned (5 μm thickness), and stained for skin markers after re-hydration. […] Retinol at a active concentration of 0.05% was used a positive control. Retinol use at a 0.05% active concentration in the semi-occlusion patch vehicle formulation yielded a visual score of approximately 0.56 out of a 4 point scale in HE staining (measuring hematoxylin and eosin staining, an indication of viable epidermal thickness and health) with 63.6% of the subjects showing an improvement; a visual score of 0.6 out of a 4 point scale in M-TC staining (Masson's trichrome staining, assessing total mature fiber-forming collagen in the dermis—mainly Collagen I, […] and Collagen V) with 51.6% of the subjects showing an improvement; a visual score of 0.52 out of a 4 point scale for pro-Col (measuring new synthesis of Collagen I by skin fibroblasts in the dermis) with 51.6% of the subjects showing an improvement; and a visual score of 0.57 out of a 4 point scale for HA (measuring level of hyaluronic acid in both dermis and epidermis) with 50% of the subjects showing an improvement.
compound,measurement,setting,value
CC1=C(/C=C/C(C)=C/C=C/C(C)=C/CO)C(C)(C)CCC1 [Retinol],"subjects showing an improvement, HA",,50%
same,"subjects showing an improvement, HE staining",,63.6%
same,"subjects showing an improvement, M-TC staining",,51.6%
same,"subjects showing an improvement, pro-Col",,51.6%
same,visual score for HA (level of hyaluronic acid in both dermis and epidermis),out of a 4 point scale,0.57
same,visual score for pro-Col (new synthesis of Collagen I by skin fibroblasts in the dermis),out of a 4 point scale,0.52
same,visual score in HE staining (viable epidermal thickness and health),out of a 4 point scale,approximately 0.56
same,visual score in M-TC staining (total mature fiber-forming collagen in the dermis),out of a 4 point scale,0.6
